Source: publication PMC12412326, “Cloning and Functional Characterization of a Novel Brevinin-1-Type Peptide from Sylvirana guentheri with Anticancer Activity” (Current Issues in Molecular Biology, 2025)
pIC50: −log10 of the molar value. Read-outs that look alike come from different tables or passages of the source. Ends that are not written are not given here. Peptide text beside a SMILES is read from it.

Assays:
HCT116 (colon) cells = format: cell-based, human; conditions: 72 h
Experimental: (§1) The cytotoxic effects of brevinin-1 E8.13 were evaluated in six human cancer cell lines: A549 (lung), AGS (stomach), Jurkat (blood), HCT116 (colon), HL60 (blood), and HepG2 (liver). All cell lines were cultured in either DMEM or RPMI-1640 medium supplemented with 10% fetal bovine serum (FBS) and 1% penicillin–streptomycin, under conditions of 5% CO2 at 37 °C. The 3-(4,5-dimethylthiazol-2-yl)-2,5-diphenyltetrazolium bromide (MTT) assay was used to assess cell viability. Cells were seeded at a density of 10^4 cells per well in 96-well plates and incubated at 37 °C. After 72 h of treatment with the peptide, 10 µL of MTT reagent (Merck, Darmstadt, Germany) in PBS, pH 7.0 was added to each well and incubated for 4 h. Following supernatant removal, 100 µL of dimethyl sulfoxide (DMSO, Merck, Germany) was added to dissolve the resulting formazan crystals. Absorbance was measured at 570 nm using a microplate reader. Each experimental condition was performed in triplicate. The cytotoxicity of the peptide was also evaluated in normal human dermal fibroblast cells using the same assay.

AGS (stomach) cells = format: cell-based, human; conditions: 72 h
Experimental: as §1

HepG2 (liver) cells = format: cell-based, human; conditions: 72 h
Experimental: as §1

HL60 (blood) cells = format: cell-based, human; conditions: 72 h
Experimental: as §1

Jurkat (blood) cells = format: cell-based, human; conditions: 72 h
Experimental: as §1

A549 (lung) cells = format: cell-based, human; conditions: 72 h
Experimental: as §1

[1] = Circular dichroism, secondary structure estimated with CDNN 2.1; format: physicochemical; conditions: 0.3 mg/mL in deionized water, CDNN 2.1, 190–260 nm range
Experimental: The CD spectrum of the peptide brevinin-1 E8.13 was measured to evaluate its secondary structure. The peptide was dissolved in deionized water at a concentration of 0.3 mg/mL. Measurements were performed using a ChiraScan™ Circular Dichroism Spectrometer (Applied Photophysics, Leatherhead, Surrey, UK) with a quartz cuvette of 1 mm path length. The CD spectra were recorded over a wavelength range of 180–260 nm using the default instrument settings recommended by the manufacturer (scanning speed, integration time, and bandwidth). Each sample was measured three consecutive times, and the solvent-corrected average spectrum was used for analysis. The resulting spectra were processed using the CDNN 2.1 (Circular Dichroism Neural Network) software to estimate the proportions of secondary structural elements, including α-helix, β-sheet, β-turn, and random coil.

Bacillus subtilis = format: cell-based
Experimental: (§2) The antibacterial activity of brevinin-1 E8.13 was evaluated against six bacterial strains, including two Gram-positive species (Staphylococcus aureus and Bacillus subtilis) and four Gram-negative species (Escherichia coli, Acinetobacter baumannii, Klebsiella pneumoniae, and Pseudomonas aeruginosa). All strains were isolated and identified by the Department of Microbiology, Thanh Nhan Hospital (Hanoi, Vietnam), and are currently maintained at the Laboratory of Cell Biotechnology and Bioassay, Institute of Biology, Vietnam Academy of Science and Technology (VAST).
(§3) Each bacterial strain was first cultured overnight in Luria–Bertani (LB) broth. Then, 100 μL of the overnight culture was transferred to 5 mL of fresh LB broth and incubated at 37 °C with shaking until reaching the logarithmic growth phase. Cultures were adjusted to a concentration of 10^6 colony-forming units (CFU)/mL and dispensed into 96-well plates. The peptide was added at final concentrations ranging from 24.8 μM to 0.4 μM. After 24 h of incubation at 37 °C, bacterial growth was quantified by measuring optical density (OD) at 600 nm using a Synergy HT microplate reader (BioTek, Winooski, VT, USA). All concentrations were tested in triplicate.

Staphylococcus aureus = format: cell-based; conditions: for MIC S. aureus: 24 h
Experimental: as §2, §3

Escherichia coli = format: cell-based
Experimental: as §2, §3

Klebsiella pneumoniae = assay: Antibacterial activity (MIC, broth dilution in 96-well plates); format: cell-based; conditions: LB broth, 10^6 CFU/mL, 24 h at 37 °C, OD 600 nm, triplicate
Experimental: as §2, §3

Pseudomonas aeruginosa = assay: as above; format: cell-based; conditions: LB broth, 10^6 CFU/mL, 24 h at 37 °C, OD 600 nm, triplicate
Experimental: as §2, §3

Acinetobacter baumannii = assay: as above; format: cell-based; conditions: LB broth, 10^6 CFU/mL, 24 h at 37 °C, OD 600 nm, triplicate
Experimental: as §2, §3

[2] = test system: human cancer cell lines (A549, AGS, Jurkat, HCT116, HL60, HepG2); format: cell-based
Experimental: as §1

[3] = LB broth, 10^6 CFU/mL, 24 h at 37 °C, OD 600 nm, triplicate

With `CC[C@H](C)[C@H](NC(=O)[C@H](C)NC(=O)[C@H](C)NC(=O)[C@@H]1CCCN1C(=O)[C@@H](NC(=O)[C@H](CC(C)C)NC(=O)[C@H](CCCCN)NC(=O)[C@H](CO)NC(=O)[C@H](C)NC(=O)[C@@H](NC(=O)[C@H](CCCCN)NC(=O)[C@H](Cc1ccccc1)NC(=O)[C@H](CC(C)C)NC(=O)[C@H](C)NC(=O)CNC(=O)[C@H](CC(C)C)NC(=O)[C@@H](N)Cc1ccccc1)C(C)C)C(C)C)C(=O)N[C@@H](CS)C(=O)N[C@@H](CO)C(=O)N[C@@H](Cc1ccccc1)C(=O)N[C@@H](CO)C(=O)N[C@@H](CCCCN)C(=O)N[C@@H](CCCCN)C(=O)N[C@@H](CS)C(N)=O` [Brevinin-1 E8.13] (H-FLGALFKVASKLVPAAICSFSKKC-NH2; N-terminus assumed) as the molecule, how does the pIC50 (HCT116 (colon) cells) read?
The pIC50 was 5.04.

And the pIC50 (AGS (stomach) cells)?
Its pIC50 is 5.12.

And the pIC50 (HepG2 (liver) cells)?
Its pIC50 is 4.93.

And the pIC50 (HL60 (blood) cells)?
The pIC50 was 4.83.

What about the pIC50 (Jurkat (blood) cells) of the same molecule?
Its pIC50 is 4.89.

And the pIC50 (A549 (lung) cells)?
The pIC50 was 4.50.

What about the “Antiparallel β-sheet content (CD)” value [1] of the same molecule?
Its value is 36.2%.

And the “Random coil content (CD)” value [1]?
Its value is 27.74%.

And the “α-helix content (CD)” value [1]?
Its value is 11.83%.

And the “β-turn content (CD)” value [1]?
The value was 15.48%.

And the “MIC B. subtilis” value (Bacillus subtilis; [3])?
Its value is greater than 24.8 µM.

What about the “MIC S. aureus” value (Staphylococcus aureus) of the same molecule?
The value was 1.5 µM.

And the “Selectivity Index (SI) toward Staphylococcus aureus over normal cells” value (Staphylococcus aureus; SI = IC50 (HDF) or HC50 / MIC, result in words)?
The value was “high selectivity (SI > 10 reflects high selectivity)”.

And the “MIC E. coli” value (Escherichia coli; [3])?
Its value is greater than 24.8 µM.

And the “MIC K. pneumonia” value (Klebsiella pneumoniae)?
Its value is greater than 24.8 µM.

What about the “MIC P. aeruginosa” value (Pseudomonas aeruginosa) of the same molecule?
The value was greater than 24.8 µM.

What about the “MIC A. baumanii” value (Acinetobacter baumannii) of the same molecule?
The value was greater than 24.8 µM.

What about the pIC50 ([2]; 72 h) of the same molecule?
The pIC50 was 4.83 to 5.12.

What about the “Selectivity Index (SI) toward cancer cells” value ([2]; SI = IC50 (HDF) or HC50 / IC50 (cancer cells), result in words) of the same molecule?
Its value is “moderate selectivity”.

Which results are given for “FAKWAFKWLKK-NH2 [GA-K4AL, reference compound]”?
MIC B. subtilis (Bacillus subtilis; 24 h): >41.8 µM; MIC S. aureus (Staphylococcus aureus): 2.5 µM; MIC E. coli (Escherichia coli; 24 h): 10.1 µM
